# Laboratory results reported in ChEMBL document CHEMBL1201862, “PubChem BioAssay data set” (2004).
#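 These data come from cells grown in 96-well plates and exposed to compound for 48 hours at five concentrations. Here, GI50 denotes the concentration required for 50% inhibition of growth.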 The source made the active and inactive calls. Rule as the data show it: active = GI50 up to about 1.1 µM and inactive = higher.
# What was measured:
# Assay in all cases: NCI anticancer screen, dose series, 48 h
# [1] = test system: KM-20L2
# [2] = test system: DMS-114
# [3] = test system: RXF 631
# [4] = test system: SNB-78
# [5] = test system: DLD-1
# [6] = test system: HOP-18
# [7] = test system: BT-549
# [8] = test system: Hs-578T
SMILES,GI50 [1],GI50 [2],GI50 [3],GI50 [4],GI50 [5],GI50 [6],GI50 [7],GI50 [8]
CC(=O)N1CC2Nc3ccccc3C2CC1CO (centres undefined),> 100 µM (inactive),> 100 µM (inactive),> 100 µM (inactive),> 100 µM (inactive),> 100 µM (inactive),,,
Cn1c(=O)c2c(nc(C[N+]3([O-])CCOCC3)n2C)n(C)c1=O,> 100 µM (inactive),0.45 µM (active),,,> 100 µM (inactive),,,
NC(=O)c1cn(Cc2ccccc2)c(=O)n1Cc1ccccc1,> 100 µM (inactive),,,> 100 µM (inactive),> 100 µM (inactive),> 100 µM (inactive),,
CC1(C)Cc2c(oc3ncnc(N)c23)CS1,> 100 µM (inactive),> 100 µM (inactive),> 100 µM (inactive),> 100 µM (inactive),> 100 µM (inactive),,,
Oc1nnc2c(-c3ccccc3)n[nH]c2n1,> 100 µM (inactive),> 100 µM (inactive),,> 100 µM (inactive),> 100 µM (inactive),,,
CCCNC(=O)C1C(=O)C(=O)N(CCC)C1=O (centres undefined),> 100 µM (inactive),> 100 µM (inactive),,> 100 µM (inactive),> 100 µM (inactive),> 100 µM (inactive),,
O=C(O)c1ccc(Nc2nc3nn(Cc4ccccc4)cc3c(=O)s2)cc1,> 100 µM (inactive),> 100 µM (inactive),,> 100 µM (inactive),> 100 µM (inactive),74.8 µM (inactive),,
Cc1ccc(C2OC(COCc3ccc(Cl)cc3)C(OCc3ccc(Cl)cc3)C2O)cc1 (centres undefined),12.6 µM (inactive),5.24 µM (inactive),,14.3 µM (inactive),9.29 µM (inactive),79.4 µM (inactive),,
OC(c1ccccc1Br)(c1ccccc1Br)C(F)(F)F,24.5 µM (inactive),20.8 µM (inactive),,,37.5 µM (inactive),42.8 µM (inactive),,
OCC(O)C(OC1OC(CO)C(O)C(O)C1O)c1nn(-c2ccc(Cl)cc2)c2nc3cc(Cl)ccc3nc12 (centres undefined),> 100 µM (inactive),> 100 µM (inactive),> 100 µM (inactive),> 100 µM (inactive),> 100 µM (inactive),,,
COC(=O)NC12CC3CC(CC(F)(C3)C1)C2,> 100 µM (inactive),,> 100 µM (inactive),> 100 µM (inactive),> 100 µM (inactive),,,
Oc1cccc(C2SCc3nc4ccccc4n32)c1 (centres undefined),,31 µM (inactive),,> 100 µM (inactive),44.3 µM (inactive),0.42 µM (active),,
O=C(CCC(=O)Nc1cccc(Cl)c1)CC(=O)c1ccc(F)cc1,> 100 µM (inactive),,,> 100 µM (inactive),> 100 µM (inactive),,,
CCOC(=O)[C@]12C3C=CC(C3)C1C(=O)C1OC12 (some centres undefined),,> 100 µM (inactive),> 100 µM (inactive),> 100 µM (inactive),> 100 µM (inactive),> 100 µM (inactive),,
CC1=C2C(=CC(C)(CO)C2O)C(=O)C(C)(O)C12CC2 (centres undefined),0.00216 µM (active),0.00205 µM (active),0.00274 µM (active),0.00144 µM (active),0.00895 µM (active),0.007 µM (active),,
Cc1c(C(=O)/C=C/c2ccc3c(c2)OCO3)[n+]([O-])c2ccccc2[n+]1[O-],22.3 µM (inactive),21.4 µM (inactive),53.6 µM (inactive),36.2 µM (inactive),38.6 µM (inactive),86.7 µM (inactive),,
COc1ccc(CC(C#N)c2cc(OC)c(OC)c(OC)c2)cc1 (centres undefined),0.0541 µM (active),0.0418 µM (active),,0.227 µM (active),0.11 µM (active),,11.9 µM (inactive),0.0286 µM (active)
